Reference: US20030170299A1, “Therapeutic methods for acute myeloid leukemia” (priority 2002, published 2003)
Like-named read-outs stand apart in the source and are kept apart here.

Columns and labels:
[1] = system: KG-1 cells; experiment: Cellular uptake of calcein liposomes by flow cytometry, KG-1; assay type: cell-based, human; conditions: 6S-5MeTHF at 10 μM
Protocol: Folate-coated liposomes with the composition DSPC/Chol/folate-PEG-DSPE (60:40:0.1, m/m) and entrapping calcein, a membrane impermeable fluorescent dye, (f-L-calcein) were prepared, using a modification of the procedure described above. Non-targeted calcein-containing liposomes (L-calcein), with essentially the same composition, minus folate-PEG-DSPE, were used as a control. FR (+) cell lines, human KG-1, CHO-FR-β, and murine L1210JF, and the FR (−) cell lines KG-1a, CHO-K1 and L1210 were used. FR-β expression on the cells was determined by flow cytometry using a receptor-specific antibody. For liposome binding studies, the cells were treated in triplicate with f-L-calcein (folate-conjugated liposomes containing calcein) or free L-calcein at 20 μM in media. The cells were then washed 3× with cold PBS and examined by […] (FIG. 3).
Data on cellular uptake of calcein-containing liposomes in the FR (+) KG-1, L1210JF and CHO-FR-β cells, and FR (−) KG-1a, L1210 and CHO-K1 controls are summarized in Table 2 below.
In order to examine the potential effect of physiological folate on FR-mediated drug delivery in FR-β (+) cells, f-L-calcein uptake was measured in KG-1 cells in the presence of 0-10 μM 6S-5-methyltetrahydrofolate (6S-5MeTHF) using the same flow cytometry method as described above.

[2] = system: FR-β; conditions: cited from earlier work
[3] = system: FR-β expression; experiment: ATRA induction of FR-β in AML blasts from patient marrow (Western blot); assay type: cell-based, human; conditions: myeloid leukemia cells from patient bone marrow, in vitro, ATRA 1 μmol/L
Protocol: FIG. 5. ATRA induction of FR-β in AML blasts from patient marrow. Cells (1×10^6) were cultured and treated with or without ATRA (1 μmol/L) for 6 hours (A and B), 24 hours (C), or 5 days (D). The samples were obtained from separate patients with FAB-M2 (A and C) or FAB-M4 (B and D) type AML. Cell lysates were then examined by Western blot and the use of rabbit anti-FR-β- and AP conjugated antibodies.
In one study, FR-β expression was elevated up to 20-fold by ATRA in KG-1 myeloid leukemia cells in a dose-dependent and reversible manner in the absence of terminal differentiation or cell growth inhibition (FIG. 4). The retinoid-induced increase in FR-β expression occurred in these cells without causing terminal differentiation or growth inhibition of the cells. In addition, ATRA increased FR-β expression in vitro in myeloid leukemia cells from patient bone marrow (FIG. 5). ATRA-induction of FR-β occurred even though primary AML blast cells (M2 and M4 type AMLs) are known to be refractory to ATRA differentiation therapy. […] In addition, FR-β inducers can modulate FR-β expression in AML cells refractory to retinoid differentiation therapy.

[4] = system: KG-1 ascites tumor
Protocol: Effect of f-L-DOX treatment on the survival of SCID mice carrying KG-1 ascites tumor. SCID mice inoculated intraperitoneally with KG-1 cells that were treated with saline, free DOX, L-DOX or f-L-DOX, with or without co-injection of ATRA. Animal survival was recorded starting from the day of tumor cell inoculation.
The therapeutic efficacy of f-L-DOX in a human leukemia murine ascites xenograft model was further tested. Female CB.17 SCID (scid/scid, 18-22 g) mice were inoculated intraperitoneally with human AML KG-1 cells, which express FR-β, to generate ascites tumors. KG-1 cells (1×10^6) grown in folate-deficient RPMI1640 media supplemented with 20% FBS were injected into the mice intraperitoneally on day 0. […] Peritoneal exudate cells were collected by peritoneal lavage with 5 mL Hanks' balanced salt solution (HBSS), pelleted and resuspended in RPMI1640 media. […] The tumor cells were inoculated into 8 groups of 8 mice. Four of the groups received daily intraperitoneal injections of 10 mg/kg of ATRA on days 1 through 5. The following formulations were administered as intraperitoneal injections on days 1, 5, and 9 (in 50 μL): 1) saline, 2) free DOX (3 mg/kg), 3) L-DOX (5 mg/kg), 4) f-L-DOX (5 mg/kg), 5) saline+ATRA, 6) free DOX+ATRA, 7) L-DOX+ATRA, and 8) f-L-DOX+ATRA. The body weight and survival of the animals were monitored daily during the course of the study.

[5] = system: FR-β expression
[6] = system: acute promyelocytic leukemia (PML); conditions: PML patients; cited from earlier work
[7] = system: L1210JF ascites tumor; experiment: Survival of DBA/2 mice carrying L1210JF ascites tumor; assay type: in vivo, DBA/2J mice; conditions: i.p. on days 1, 5, 9; free DOX 3 mg/kg, L-DOX and f-L-DOX 5 mg/kg DOX
Protocol: The antileukemic therapeutic efficacy of f-L-DOX was evaluated in two FR (+) murine leukemia ascites tumor models. The first model consisted of DBA/2J mice with ascites tumors derived from intraperitoneally engrafted FR (+) murine lymphocytic leukemia L1210JF cells. Male mice (18-22 g, from Charles River, Wilmington, Mass.) were placed on a folate-deficient diet (AIN-93G from Dyets, Inc., PA) and for at least one week prior to leukemia cell inoculation. The mice, in groups of 8 animals, were injected intraperitoneally with 1×10^6 L1210JF cells on day 0. The animals then received three intraperitoneal injections (in 50 μL) of various drug formulations on days 1, 5, and 9. […] In the saline-treated group, no visible ascitic fluid began to develop until after one week.

[8] = system: L1210JF cells; experiment: MTT cytotoxicity, L1210JF; assay type: cell-based, murine; conditions: no ATRA
Protocol: (§1) FR-targeted liposomal doxorubicin (f-L-DOX) was evaluated for in vitro cytotoxicity in both FR (+) and FR (−) leukemia cells using a standard cell survival assay (MTT assay). FR-targeted liposomal-doxorubicin (f-L-DOX) was prepared as described above. F-L-DOX in vitro cytotoxicity was evaluated in two FR (+) cell lines [KG-1, an FR-β (+) human AML cell line, and L1210JF, an FR (+) subline of L1210 murine acute lymphocytic leukemia cell line] and two FR (−) cell lines [KG-1a, an FR-β (−) subline of KG-1, and FR (−) L1210 cells] using the survival assay. The cells were treated in quadruplicate with serial dilutions of f-L-DOX, non-targeted control L-DOX, or free DOX. Cell viability was determined and IC50 values were calculated. For KG-1 and KG-1a cells, the MTT assay was repeated with cells cultured in media containing 1 μM ATRA for 5-days.

[9] = system: KG-1a cells; experiment: MTT cytotoxicity, KG-1a; assay type: cell-based, human
Protocol: as §1

[10] = system: KG-1 cells; experiment: MTT cytotoxicity, KG-1; assay type: cell-based, human
Protocol: as §1

[11] = system: L1210 cells; experiment: MTT cytotoxicity, L1210; assay type: cell-based, murine
Protocol: as §1

[12] = system: CMLs; conditions: in vivo; cited from earlier work
[13] = system: FR-β (+) AML cells; experiment: [3H] folic acid binding to FR-β (+) AML cells; parameters: species or system human

In the case of `CN1c2c(nc(N)[nH]c2=O)NC[C@@H]1CNc1ccc(C(=O)N[C@@H](CCC(=O)O)C(=O)O)cc1` [6S-5MeTHF, 6S-5-methyltetrahydrofolate], the “inhibition of f-L-calcein uptake” value [1] is listed as “did not significantly inhibit” and the “affinity of FR-β lower than for folic acid” value [2] is listed as about 35 ×.

With `CC1=C(/C=C/C(C)=C/C=C/C(C)=C/C(=O)O)C(C)(C)CCC1` [ATRA, all-trans retinoic acid] the FR-β expression [3] was “increased”, the survival ([4]; ATRA treatment in the absence of f-L-DOX or L-DOX) was “did not enhance survival” and the FR-β expression ([5]; KG-1 cells, flow cytometry, 5-day exposure to ATRA (1 μM)) was “significant increase”. For the same molecule, the FR-β expression elevated ([5]; KG-1 myeloid leukemia cells, dose-dependent, reversible) was “up to 20 fold” and the Complete remission [6] was 72-95%.

With `COc1cccc2c1C(=O)c1c(O)c3c(c(O)c1C2=O)C[C@@](O)(C(=O)CO)C[C@@H]3O[C@H]1C[C@H](N)[C@H](O)[C@H](C)O1` [Free DOX, doxorubicin] the median survival time [7] was 28.5 days, the IC50 ([8]; FR-α (+), folate-free media) was 860 nM and the IC50 ([8]; media containing 1 mM folic acid) was 870 nM. The dose-limiting toxicity ([4]; mice, results not shown) was over 3 mg/kg, the IC50 ([9]; FR (−), no ATRA, folate-free media) was 610 nM and the IC50 ([9]; FR (−), pre-exposure to ATRA, folate-free media) was 590 nM. For the same molecule, the IC50 ([9]; no ATRA, media containing 1 mM folic acid) was 630 nM, the IC50 ([9]; pre-exposure to ATRA, media containing 1 mM folic acid) was 620 nM and the IC50 ([10]; KG-1, FR-β (+), no ATRA, folate-free media) was 650 nM. For the same molecule, the IC50 ([10]; KG-1, FR-β (+), pre-exposure to ATRA, folate-free media) was 630 nM, the IC50 ([10]; KG-1, no ATRA, media containing 1 mM folic acid) was 670 nM and the IC50 ([10]; KG-1, pre-exposure to ATRA, media containing 1 mM folic acid) was 680 nM. It also gave an IC50 ([11]; L1210, FR (−), no ATRA, folate-free media) of 910 nM and an IC50 ([11]; L1210, no ATRA, media containing 1 mM folic acid) of 930 nM.

In the case of `CS(=O)(=O)O.Cc1ccc(NC(=O)c2ccc(CN3CCN(C)CC3)cc2)cc1Nc1nccc(-c2cccnc2)n1` [Gleevec™], the “effective against CMLs” value [12] is given as 90%.

With `Nc1nc2ncc(CNc3ccc(C(=O)N[C@@H](CCC(=O)O)C(=O)O)cc3)nc2c(=O)[nH]1` [folic acid] the “[3H] folic acid bound” value [13] was 0.72±0.13 pmoles per 10^6 cells.
